According to ChEMBL document CHEMBL4038298, “Ester- and amide-containing multiQACs: Exploring multicationic soft antimicrobial agents” (Bioorg Med Chem Lett, 2017):

How the values were obtained:
Pseudomonas aeruginosa = assay: Antibacterial activity against Pseudomonas aeruginosa PAO1 incubated for 72 hrs; type: functional; conditions: PAO1, 72 h
[1] = Stability in buffer solution assessed as decomposition at pH 10 by LCMS analysis; type: physicochemical
[2] = Stability of the compound in pure water up to 72 hrs by LCMS analysis; type: physicochemical; conditions: read-out: Stability
[3] = Stability in buffer solution assessed as decomposition at pH 4 by LCMS analysis; type: physicochemical
[4] = Half life at pH 7 buffer solution by LCMS method
Staphylococcus aureus [5] = assay: Antibacterial activity against hospital-acquired methicillin-resistant Staphylococcus aureus ATCC 33592 incubated for 72 hrs; type: functional; conditions: ATCC 33592, 72 h
Staphylococcus aureus [6] = assay: Antibacterial activity against community acquired methicillin-resistant Staphylococcus aureus USA300-0114 incubated for 72 hrs; type: functional; conditions: USA300-0114, 72 h
Escherichia coli = assay: Antibacterial activity against Escherichia coli MC4100 incubated for 72 hrs; type: functional; conditions: str. K-12 substr. MC4100, 72 h
Enterococcus faecalis = assay: Antibacterial activity against Enterococcus faecalis OG1RF incubated for 72 hrs; type: functional
Staphylococcus aureus [7] = assay: Antibacterial activity against methicillin-susceptible Staphylococcus aureus SH1000 incubated for 72 hrs; type: functional; conditions: SH1000, 72 h
[8] = Stability of the compound in pure water by LCMS method; type: physicochemical
[9] = Ratio of MIC for Enterococcus faecalis OG1RF to HC20 for sheep RBC assessed as compound concentration required for <20% hemolysis
[10] = Ratio of MIC for community acquired methicillin-resistant Staphylococcus aureus USA300-0114 to HC20 for sheep RBC assessed as compound concentration required for <20% hemolysis
[11] = Stability in buffer solution at pH 7 after 16 hrs by LCMS analysis; type: physicochemical; conditions: read-out: Stability
[12] = Stability in buffer solution at pH 10 after 16 hrs by LCMS analysis; type: physicochemical; conditions: read-out: Stability
[13] = Solubility of the compound in buffer solution at pH 10 by LCMS analysis; type: physicochemical

| SMILES | MIC (Pseudomonas aeruginosa) [µM] | Stability [1] | remaining at 72 h [2] [%] | Stability [3] | T1/2 [4] [h] | MIC (Staphylococcus aureus [5]) [µM] | MIC (Staphylococcus aureus [6]) [µM] | MIC (Escherichia coli) [µM] | MIC (Enterococcus faecalis) [µM] | MIC (Staphylococcus aureus [7]) [µM] | Stability [8] | Ratio [9] | Ratio [10] | remaining at 16 h [11] [%] | remaining at 16 h [12] [%] | solubility [13] |
| --- | --- | --- | --- | --- | --- | --- | --- | --- | --- | --- | --- | --- | --- | --- | --- | --- |
| CCCCCCCCCCOC(=O)C[N+](C)(C)CCCN(CCC[N+](C)(C)CC(=O)OCCCCCCCCCC)CCC[N+](C)(C)CC(=O)OCCCCCCCCCC.[Br-].[Br-].[Br-] | 16 | Unstable | ≥ 90 | Unstable | 3 | 4 | 4 | 8 | 8 | 2 | – | – | – | – | – | – |
| CCCCCCCCCCCCCCOC(=O)C[N+](C)(C)CCCN(CCC[N+](C)(C)CC(=O)OCCCCCCCCCCCCCC)CCC[N+](C)(C)CC(=O)OCCCCCCCCCCCCCC.[Br-].[Br-].[Br-] | 250 | – | – | – | – | 32 | 16 | 32 | 16 | 125 | Stable | 4 | 4 | – | – | – |
| CCCCCCCCCCCCCCOC(=O)C[N+](C)(C)CCC[N+](C)(CCC[N+](C)(C)CC(=O)OCCCCCCCCCCCCCC)CC(=O)OCCCCCCCCCCCCCC.[Br-].[Br-].[Br-] | 250 | – | – | – | – | 32 | 16 | 63 | 32 | 63 | Stable | – | 4 | – | – | – |
| CCCCCCCCCCNC(=O)C[N+](C)(C)CCN1CC[N+](C)(CC(=O)NCCCCCCCCCC)CC1.[Br-].[Br-] | 2 | Unstable | ≥ 90 | – | – | 0.5 | 0.5 | 1 | 0.5 | 0.5 | – | – | – | > 80 | > 80 | Insoluble |
| CCCCCCCCCCOC(=O)C[N+](C)(C)CCN1CC[N+](C)(CC(=O)OCCCCCCCCCC)CC1.[Br-].[Br-] | 16 | Unstable | ≥ 90 | Unstable | 3 | 2 | 2 | 2 | 4 | 2 | – | – | – | – | – | – |
| CCCCCCCCCCNC(=O)C[N+](C)(C)CCCN(CCC[N+](C)(C)CC(=O)NCCCCCCCCCC)CCC[N+](C)(C)CC(=O)NCCCCCCCCCC.[Br-].[Br-].[Br-] | 8 | Unstable | ≥ 90 | – | – | 1 | 0.5 | 1 | 1 | 1 | – | – | – | > 80 | > 80 | Insoluble |
